Results on 46 compounds are retold here after patent publication US11641858B2, “Agricultural chemicals” (Redag Crop Protection Ltd, priority 2016, dated 2023).

The subject of assay [1] is Pythium ultimum. The experiment in a line: Amended agar assay (potato dextrose agar), reduction in colony growth. Conditions: Globisporangium ultimum; for EC50: descending test concentrations, 5-fold dilutions typically down to 0.032 ppm, read-out: Pythium ultimum (EC50); for inhibition of growth at 20 ppm: Pythium ultimum, primary screen at 20 ppm, read-out: % control at 20 ppm. It is filed as cell-based. Here is the method: (§1) Testing was carried out on potato dextrose agar (PDA) amended with each compound at test concentrations of 20, 4 and 0.8, 0.16 and 0.032 ppm. Amended agar at each test concentration was poured into three replicate 9 cm petri dishes. Each replicate dish was inoculated in the centre with a 5 mm agar plug taken from the leading edge of a culture aged between 2 and 7 days old; the age of the culture was dependant on the growth rate of the pathogen being tested. The test pathogens were Pythium ultimum and Phytophthora cinnamomi. Plates were incubated at 18° C. and the diameter of each colony measured before growth on the fastest growing plate reached the plate edge. This varied between 2 and 7 days depending on the growth rate of test pathogens. The % reduction in colony growth compared to the control was calculated for each test concentration and pathogen combination.
(§2) The results are shown in Table 1 in which * represents an average control of up to 50% at said dosage; ** represents an average control of 50% or greater but less than 80% at said dosage; and *** represents an average control of 80% or greater at said dosage.
(§3) A primary screen was also conducted for a number of other compounds of the invention. The screen was conducted at 20 ppm and the results are provided in Table 2, in which D represents no control detected at this concentration; C represents up to 50% control; B from 50 to 99% control; and A represents a control of greater than 99%.
(§4) Alternatively, or in addition, the same assay was conducted at descending test concentrations with 5-fold dilutions typically down to 0.032 ppm, and an EC50 (the concentration at which 50% control would be achieved) was determined. The results are provided in Table 1 in which G represents an EC50 above 20 ppm, F represents an EC50 of 2-20 ppm and E represents and EC50 less than 2 ppm.

For assay [2], the system named is Phytophthora cinnamomi. The description is as above. As to conditions: for EC50: descending test concentrations, 5-fold dilutions typically down to 0.032 ppm, read-out: Phytophthora cinnamomi (EC50). The assay is classed as cell-based. Here is the method:
as §1, §2, §3, §4

One may read the EC50 as the concentration that produces a half-maximal response. Turning to `C=CCOC(=O)Nc1cccc(COc2nc3ccccc3n2-c2nnnn2C)n1` [Example 19], the EC50 in assay [1] and in assay [2] was less than 2 µg/mL each time.
`COCCOC(=O)Nc1cccc(COc2nc3ccccc3n2-c2nnnn2C)n1` [Example 20]: the EC50 in assay [1] and in assay [2] was less than 2 µg/mL throughout.
For `CCCOC(=O)Nc1cccc(COc2nc3ccccc3n2-c2nnnn2C)n1` [Example 21], the EC50 in assay [1] and in assay [2] was less than 2 µg/mL in each case.
Turning to `Cn1nnnc1-n1c(OCc2cccc(NC(=O)CC3CCCC3)n2)nc2ccccc21` [Example 22, 2-Cyclopentyl-N-(6-(((1-(1-methyl-1H-tetrazol-5-yl)-1H-benzo[d]imidazol-2-yl)oxy)methyl)pyridin-2-yl)acetamide], the EC50 in assay [1] and in assay [2] was less than 2 µg/mL in each case.
`Cn1nnnc1-n1c(OCc2cccc(NC(=O)C3CCCC3)n2)nc2ccccc21` [Example 23]: the concentration for a half-maximal effect (EC50) in assay [1] and in assay [2] was less than 2 µg/mL throughout.
On to `Cn1nnnc1-n1c(OCc2cccc(NC(=O)COCc3ccccc3)n2)nc2ccccc21` [Example 24], for which the EC50 in assay [1] and in assay [2] was less than 2 µg/mL each time.
As for `Cn1nnnc1-n1c(OCc2cccc(NC(=O)COc3ccccc3)n2)nc2ccccc21` [Example 25], the EC50 in assay [1] and in assay [2] was less than 2 µg/mL throughout.
Turning to `Cn1nnnc1-n1c(OCc2cccc(NC(=O)CCC3CCCC3)n2)nc2ccccc21` [Example 26], the EC50 in assay [1] and in assay [2] was less than 2 µg/mL each time.
Turning to `Cn1nnnc1-n1c(OCc2cccc(NC(=O)c3ccccc3)n2)nc2ccccc21` [Example 27], the concentration giving a half-maximal response (EC50) in assay [1] and in assay [2] was less than 2 µg/mL in each case.
With `CCC(=O)Nc1cccc(COc2nc3ccccc3n2-c2nnnn2C)n1` [Example 28], the EC50 in assay [1] and in assay [2] was less than 2 µg/mL each time.
Take `Cn1nnnc1-n1c(OCc2cccc(NC(=O)Cc3ccccc3)n2)nc2ccccc21` [Example 29]: the EC50 in assay [1] and in assay [2] was less than 2 µg/mL in each case.
As for `CCCC(=O)Nc1cccc(COc2nc3ccccc3n2-c2nnnn2C)n1` [Example 30], the EC50 in assay [1] and in assay [2] was less than 2 µg/mL in each case.
As for `CCCCC(=O)Nc1cccc(COc2nc3ccccc3n2-c2nnnn2C)n1` [Example 31], the EC50 in assay [1] and in assay [2] was less than 2 µg/mL in each case.
On to `Cn1nnnc1-n1c(OCc2cccc(NC(=O)C3CC3)n2)nc2ccccc21` [Example 32], for which the EC50 in assay [1] and in assay [2] was less than 2 µg/mL each time.
Turning to `COCC(=O)Nc1cccc(COc2nc3ccccc3n2-c2nnnn2C)n1` [Example 33], the EC50 in assay [1] and in assay [2] was 2 to 20 µg/mL each time.
Turning to `COc1ccc(C(=O)Nc2cccc(COc3nc4ccccc4n3-c3nnnn3C)n2)cc1` [Example 34], the EC50 in assay [1] and in assay [2] was less than 2 µg/mL in each case.
As to `Cn1nnnc1-n1c(OCc2cccc(NC(=O)C3CCCCC3)n2)nc2ccccc21` [Example 35], the EC50 in assay [1] and in assay [2] was less than 2 µg/mL in each case.
Turning to `CCC(CC)C(=O)Nc1cccc(COc2nc3ccccc3n2-c2nnnn2C)n1` [Example 36], the EC50 in assay [1] and in assay [2] was less than 2 µg/mL in each case.
Regarding `Cn1nnnc1-n1c(OCc2cccc(NC(=O)c3ccccn3)n2)nc2ccccc21` [Example 37, N-(6-(((1-(1-methyl-1H-tetrazol-5-yl)-1H-benzo[d]imidazol-2-yl)oxy)methyl)pyridin-2-yl)picolinamide], the EC50 in assay [1] and in assay [2] was less than 2 µg/mL in each case.
Take `Cn1nnnc1-n1c(OCc2cccc(NC(=O)Cc3ccccn3)n2)nc2ccccc21` [Example 38]: the EC50 in assay [1] and in assay [2] was less than 2 µg/mL in each case.
In the case of `CSCC(=O)Nc1cccc(COc2nc3ccccc3n2-c2nnnn2C)n1` [Example 39, N-(6-(((1-(1-methyl-1H-tetrazol-5-yl)-1H-benzo[d]imidazol-2-yl)oxy)methyl)pyridin-2-yl)-2-(methylthio)acetamide], the EC50 in assay [1] and in assay [2] was less than 2 µg/mL throughout.
`Cn1nnnc1-n1c(OCc2cccc(NC(=O)CC3CC3)n2)nc2ccccc21` [Example 40]: the EC50 in assay [1] and in assay [2] was less than 2 µg/mL throughout.
`CSCCC(=O)Nc1cccc(COc2nc3ccccc3n2-c2nnnn2C)n1` [Example 41]: the EC50 in assay [1] and in assay [2] was less than 2 µg/mL in each case.
As for `COCCC(=O)Nc1cccc(COc2nc3ccccc3n2-c2nnnn2C)n1` [Example 42], the EC50 in assay [1] and in assay [2] was less than 2 µg/mL throughout.
Take `Cn1nnnc1-n1c(OCc2cccc(NC(=O)c3ccc(C#N)cc3)n2)nc2ccccc21` [Example 43]: the half-maximal effective concentration (EC50) in assay [1] and in assay [2] was less than 2 µg/mL in each case.
Regarding `Cn1nnnc1-n1c(OCc2cccc(NC(=O)CC(C)(C)C)n2)nc2ccccc21` [Example 44], the EC50 in assay [1] and in assay [2] was less than 2 µg/mL throughout.
In the case of `Cn1nnnc1-n1c(OCc2cccc(NC(=O)CCC(C)(C)C)n2)nc2ccccc21` [Example 45], the EC50 in assay [1] and in assay [2] was less than 2 µg/mL throughout.
In the case of `Cn1nnnc1-n1c(OCc2cccc(NC(=O)CC3CCCCC3)n2)nc2ccccc21` [Example 46], the EC50 in assay [1] and in assay [2] was less than 2 µg/mL in each case.
With `Cn1nnnc1-n1c(OCc2cccc(NC(=O)CCC3CCCCC3)n2)nc2ccccc21` [Example 47], the EC50 in assay [1] and in assay [2] was less than 2 µg/mL throughout.
For `C#CCC(=O)Nc1cccc(COc2nc3ccccc3n2-c2nnnn2C)n1` [Example 48], the 50% effective concentration (EC50) in assay [1] and in assay [2] was greater than 20 µg/mL each time.
As for `CC(C)CCC(=O)Nc1cccc(COc2nc3ccccc3n2-c2nnnn2C)n1` [Example 49], the EC50 in assay [1] and in assay [2] was less than 2 µg/mL each time.
Regarding `C=CCC(=O)Nc1cccc(COc2nc3ccccc3n2-c2nnnn2C)n1` [Example 50], the EC50 in assay [1] and in assay [2] was less than 2 µg/mL each time.
On to `CCC(C)C(=O)Nc1cccc(COc2nc3ccccc3n2-c2nnnn2C)n1` (centres unmarked) [Example 51], for which the EC50 in assay [1] and in assay [2] was less than 2 µg/mL each time.
Consider `Cn1nnnc1-n1c(OCc2cccc(NC(=O)C[S+](C)[O-])n2)nc2ccccc21` (centres unmarked) [Example 52, N-(6-(((1-(1-Methyl-1H-tetrazol-5-yl)-1H-benzo[d]imidazol-2-yl)oxy)methyl)pyridin-2-yl)-2-(methylsulfinyl)acetamide], for which the results for the EC50 in assay [1] and in assay [2] were greater than 20 µg/mL and 2 to 20 µg/mL, respectively.
The like results for `Cn1nnnc1-n1c(OCc2cccc(NC(=O)CS(C)(=O)=O)n2)nc2ccccc21` [Example 53, N-(6-(((1-(1-methyl-1H-tetrazol-5-yl)-1H-benzo[d]imidazol-2-yl)oxy)methyl)pyridin-2-yl)-2-(methylsulfonyl)acetamide] were, in that order, 2 to 20 µg/mL and less than 2 µg/mL.
For `Cn1ccnc1-n1c(OCc2cccc(NC(=O)C(F)(F)Oc3ccccc3)n2)nc2ccccc21` [Example 54], in that order: less than 2 µg/mL and less than 2 µg/mL.
For `Cn1nnnc1-n1c(OCc2cccc(NC(=O)C(F)(F)Oc3ccccc3)n2)nc2c(F)cc(F)cc21` [Example 55], in that order: less than 2 µg/mL and less than 2 µg/mL.
Consider `Cc1nccnc1-n1c(OCc2cccc(NC(=O)C(F)(F)Oc3ccccc3)n2)nc2ccccc21` [Example 56], for which the EC50 is less than 2 µg/mL in assay [1] and 2 to 20 µg/mL in assay [2].
The like results for `Cn1ccnc1-n1c(OCc2cccc(NC(=O)OC(C)(C)C)n2)nc2ccccc21` [Example 57] were, in that order, less than 2 µg/mL and less than 2 µg/mL.
For `Cn1nnnc1-n1c(OCc2cccc(NC(=O)OC(C)(C)C)n2)nc2c(F)cc(F)cc21` [Example 58], in that order: less than 2 µg/mL and less than 2 µg/mL.
For `Cc1nccnc1-n1c(OCc2cccc(NC(=O)OC(C)(C)C)n2)nc2ccccc21` [Example 59], in that order: greater than 20 µg/mL and greater than 20 µg/mL.
Regarding `Cn1nnnc1-n1c(OCc2cccc(NC(=O)C(F)(F)Oc3ccccc3)n2)nc2ccc(C#N)cc21` [Example 60], the EC50 in assay [1] and in assay [2] was less than 2 µg/mL in each case.
For the compound `Cn1nnnc1-n1c(OCc2cccc(NC(=O)C(F)(F)Oc3ccccc3)n2)nc2cc(C#N)ccc21` [Example 61], the 50% effective concentration (EC50) in assay [1] and in assay [2] was less than 2 µg/mL in each case.
As to `O=C(Nc1cccc(COc2nc3ccccc3n2-c2ncccc2Br)n1)C(F)(F)Oc1ccccc1` [Example 62], the inhibition of growth at 20 ppm in assay [1] is less than 50%; in assay [2] (primary screen at 20 ppm, read-out: % control at 20 ppm), less than 50%.
As for `O=C(Nc1cccc(COc2nc3ccccc3n2-c2ncccc2Cl)n1)C(F)(F)Oc1ccccc1` [Example 63], the half-maximal effective concentration (EC50) in assay [1] and in assay [2] was 2 to 20 µg/mL in each case.
Regarding `O=C(Nc1cccc(COc2nc3ccccc3n2-c2ncncc2Cl)n1)C(F)(F)Oc1ccccc1` [Example 64], the inhibition of growth at 20 ppm in assay [1] is greater than 99%. For the same compound, the EC50 in assay [2] was less than 2 µg/mL.
